Reference: patent publication US9458089B2, “Phenoxy alkyl diethanolamine and diisopropanolamine compounds for delivering active agents” (EMISPHERE TECHNOLOGIES, INC., priority 2012, dated 2016)
Counter-ions that a name gives are not always drawn.

Legend:
hERG channels = biological target: T1, hERG channels (Homo sapiens, UniProt Q12809); experiment: hERG patch clamp on clone hERG channels in mammalian cells; assay type: cell-based; conditions: test article 1 μm, cisapride positive control, read-out: Experimental hERG Activity
T1 construct: expressed in transfected cells
Experimental: hERG activity was measured using a patch clamp method on clone hERG channels in mammalian cells. The concentration of test articles was 1 μm and a comparison was made to both a positive (cisapride) and negative (vehicle) control.

T1 sequence (Q12809 whole entry): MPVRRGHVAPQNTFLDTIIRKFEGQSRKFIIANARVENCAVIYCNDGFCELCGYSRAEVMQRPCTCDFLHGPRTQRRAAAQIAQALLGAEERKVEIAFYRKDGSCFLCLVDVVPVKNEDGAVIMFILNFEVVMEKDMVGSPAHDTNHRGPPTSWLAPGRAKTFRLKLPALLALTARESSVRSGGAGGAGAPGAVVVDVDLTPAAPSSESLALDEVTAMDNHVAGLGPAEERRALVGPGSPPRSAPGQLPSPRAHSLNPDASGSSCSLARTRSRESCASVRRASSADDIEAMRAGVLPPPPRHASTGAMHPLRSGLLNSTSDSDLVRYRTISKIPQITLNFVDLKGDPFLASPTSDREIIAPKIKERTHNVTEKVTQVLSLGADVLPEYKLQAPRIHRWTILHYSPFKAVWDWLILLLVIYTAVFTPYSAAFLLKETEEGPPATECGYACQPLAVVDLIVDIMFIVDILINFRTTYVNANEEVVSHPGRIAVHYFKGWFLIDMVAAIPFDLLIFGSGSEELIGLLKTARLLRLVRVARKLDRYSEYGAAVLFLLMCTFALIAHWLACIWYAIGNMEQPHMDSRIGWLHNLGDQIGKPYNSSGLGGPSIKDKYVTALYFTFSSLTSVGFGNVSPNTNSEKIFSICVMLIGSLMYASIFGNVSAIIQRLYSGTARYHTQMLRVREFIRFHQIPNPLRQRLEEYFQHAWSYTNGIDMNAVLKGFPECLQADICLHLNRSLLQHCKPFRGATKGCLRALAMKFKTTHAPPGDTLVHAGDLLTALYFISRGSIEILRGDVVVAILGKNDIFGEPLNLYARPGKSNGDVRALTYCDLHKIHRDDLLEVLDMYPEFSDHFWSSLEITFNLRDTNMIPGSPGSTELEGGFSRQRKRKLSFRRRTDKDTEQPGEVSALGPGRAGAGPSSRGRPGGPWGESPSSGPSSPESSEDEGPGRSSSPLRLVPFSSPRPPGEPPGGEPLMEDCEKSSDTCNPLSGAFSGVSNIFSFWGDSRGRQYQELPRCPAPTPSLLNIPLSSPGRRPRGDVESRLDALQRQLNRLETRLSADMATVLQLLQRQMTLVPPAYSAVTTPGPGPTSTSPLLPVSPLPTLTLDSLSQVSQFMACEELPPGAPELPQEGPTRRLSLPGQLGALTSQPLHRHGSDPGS

Row | SMILES | IC50 (hERG channels) [nM] | melting point [°C]
1 | Cc1ccc(C)c(OCCCCCCN(CCO)CCO)c1 | < 2000 | –
2 | Cc1ccc(C)c(OCCCCCCCN2CCOCC2)c1 | < 2000 | –
3 | Cc1ccc(C)c(OCCCCCCCN(CCO)CCO)c1 | < 2000 | –
4 | OCCN(CCO)CCCCCCCCOc1ccccc1O | 2000 to 5000 | –
5 | Cc1ccc(F)c(OCCCCN(CCO)CCO)c1 (as salt: hydrochloride) [Compound 2-FPBD, 4-(2-fluoro-5-methylphenoxy)butyldiethanolamine] | – | 83 to 86
6 | OCCN(CCO)CCCCCCOc1ccccc1O (as salt: hydrochloride) [Compound 2-HPHD, 6-(2-hydroxyphenoxyl)hexyldiethanolamine] | – | 95 to 97
